Experiment: xn = mol fraction of the nth substance listed
Details: 101 kPa, Liquid, Vibrating tube method

CC(C)CC(C)(C)C [2,2,4-trimethylpentane] + CCC(C)(C)OC
x2 = 0
Details | mass density [kg/m3]
298.15 K | 687.68
308.15 K | 679.48
318.15 K | 671.34

CC(C)CC(C)(C)C [2,2,4-trimethylpentane] + c1ccccc1
Details | mass density [kg/m3]
298.15 K, x2 = 0 | 687.69
298.15 K, x2 = 0.06106 | 693.48
298.15 K, x2 = 0.1418 | 701.74
298.15 K, x2 = 0.2015 | 708.37
298.15 K, x2 = 0.2685 | 716.35
298.15 K, x2 = 0.3382 | 725.38
298.15 K, x2 = 0.399 | 733.9
298.15 K, x2 = 0.4639 | 743.77
298.15 K, x2 = 0.5179 | 752.66
298.15 K, x2 = 0.5986 | 767.18
298.15 K, x2 = 0.6562 | 778.61
298.15 K, x2 = 0.7257 | 793.77
298.15 K, x2 = 0.7993 | 811.66
298.15 K, x2 = 0.871 | 831.31
298.15 K, x2 = 0.9483 | 855.37
308.15 K, x2 = 0 | 679.5
308.15 K, x2 = 0.07837 | 686.91
308.15 K, x2 = 0.139 | 693.09
308.15 K, x2 = 0.2112 | 701.03
308.15 K, x2 = 0.2701 | 707.99
308.15 K, x2 = 0.3244 | 714.88
308.15 K, x2 = 0.3912 | 723.99
308.15 K, x2 = 0.4607 | 734.35
308.15 K, x2 = 0.5319 | 745.93
308.15 K, x2 = 0.6019 | 758.53
308.15 K, x2 = 0.6669 | 771.38
308.15 K, x2 = 0.7335 | 785.91
308.15 K, x2 = 0.7944 | 800.56
308.15 K, x2 = 0.8662 | 819.8
308.15 K, x2 = 0.9302 | 839.08
318.15 K, x2 = 0 | 671.34
318.15 K, x2 = 0.07013 | 677.83
318.15 K, x2 = 0.1336 | 684.16
318.15 K, x2 = 0.2025 | 691.56
318.15 K, x2 = 0.272 | 699.64
318.15 K, x2 = 0.3457 | 708.99
318.15 K, x2 = 0.4011 | 716.6
318.15 K, x2 = 0.466 | 726.21
318.15 K, x2 = 0.535 | 737.39
318.15 K, x2 = 0.5941 | 747.85
318.15 K, x2 = 0.6592 | 760.41
318.15 K, x2 = 0.7319 | 775.94
318.15 K, x2 = 0.7981 | 791.66
318.15 K, x2 = 0.8656 | 809.56
318.15 K, x2 = 0.9321 | 829.34

CCC(C)(C)OC [2-methoxy-2-methylbutane] + CC(C)CC(C)(C)C
Details | mass density [kg/m3]
298.15 K, x1 = 0.06668 | 691.73
298.15 K, x1 = 0.1334 | 695.93
298.15 K, x1 = 0.2065 | 700.7
298.15 K, x1 = 0.2712 | 705.05
298.15 K, x1 = 0.3376 | 709.68
298.15 K, x1 = 0.3977 | 713.99
298.15 K, x1 = 0.4666 | 719.11
298.15 K, x1 = 0.527 | 723.75
298.15 K, x1 = 0.5952 | 729.17
298.15 K, x1 = 0.6668 | 735.06
298.15 K, x1 = 0.7314 | 740.58
298.15 K, x1 = 0.7975 | 746.43
298.15 K, x1 = 0.8616 | 752.31
298.15 K, x1 = 0.9325 | 759.06
298.15 K, x1 = 1 | 765.77
308.15 K, x1 = 0.06672 | 683.48
308.15 K, x1 = 0.1383 | 687.9
308.15 K, x1 = 0.2056 | 692.2
308.15 K, x1 = 0.2684 | 696.36
308.15 K, x1 = 0.3406 | 701.28
308.15 K, x1 = 0.401 | 705.55
308.15 K, x1 = 0.4585 | 709.75
308.15 K, x1 = 0.5291 | 715.06
308.15 K, x1 = 0.5953 | 720.24
308.15 K, x1 = 0.6632 | 725.74
308.15 K, x1 = 0.7339 | 731.67
308.15 K, x1 = 0.7946 | 736.96
308.15 K, x1 = 0.8646 | 743.27
308.15 K, x1 = 0.9319 | 749.58
308.15 K, x1 = 1 | 756.19
318.15 K, x1 = 0.06682 | 675.24
318.15 K, x1 = 0.1368 | 679.49
318.15 K, x1 = 0.1974 | 683.27
318.15 K, x1 = 0.2673 | 687.79
318.15 K, x1 = 0.3375 | 692.5
318.15 K, x1 = 0.401 | 696.91
318.15 K, x1 = 0.4676 | 701.69
318.15 K, x1 = 0.5324 | 706.5
318.15 K, x1 = 0.5984 | 711.56
318.15 K, x1 = 0.6593 | 716.41
318.15 K, x1 = 0.7309 | 722.32
318.15 K, x1 = 0.7982 | 728.08
318.15 K, x1 = 0.8669 | 734.18
318.15 K, x1 = 0.932 | 740.18
318.15 K, x1 = 1 | 746.69

CCC(C)(C)OC [2-methoxy-2-methylbutane] + c1ccccc1
Details | mass density [kg/m3]
298.15 K, x2 = 0 | 765.79
298.15 K, x2 = 0.06414 | 770.46
298.15 K, x2 = 0.1353 | 775.9
298.15 K, x2 = 0.2019 | 781.23
298.15 K, x2 = 0.2693 | 786.88
298.15 K, x2 = 0.3352 | 792.67
298.15 K, x2 = 0.4021 | 798.87
298.15 K, x2 = 0.4653 | 805.02
298.15 K, x2 = 0.5342 | 812.08
298.15 K, x2 = 0.6022 | 819.46
298.15 K, x2 = 0.6671 | 826.93
298.15 K, x2 = 0.7367 | 835.44
298.15 K, x2 = 0.7973 | 843.32
298.15 K, x2 = 0.8665 | 852.89
298.15 K, x2 = 0.9336 | 862.89
308.15 K, x2 = 0 | 756.23
308.15 K, x2 = 0.06701 | 761.09
308.15 K, x2 = 0.1338 | 766.17
308.15 K, x2 = 0.2009 | 771.51
308.15 K, x2 = 0.2672 | 777.02
308.15 K, x2 = 0.3336 | 782.8
308.15 K, x2 = 0.4024 | 789.11
308.15 K, x2 = 0.4715 | 795.77
308.15 K, x2 = 0.5344 | 802.18
308.15 K, x2 = 0.6008 | 809.31
308.15 K, x2 = 0.6685 | 816.98
308.15 K, x2 = 0.7345 | 824.97
308.15 K, x2 = 0.7995 | 833.32
308.15 K, x2 = 0.8625 | 841.93
308.15 K, x2 = 0.9344 | 852.47
318.15 K, x2 = 0 | 746.71
318.15 K, x2 = 0.06757 | 751.58
318.15 K, x2 = 0.1346 | 756.63
318.15 K, x2 = 0.2014 | 761.91
318.15 K, x2 = 0.269 | 767.5
318.15 K, x2 = 0.3371 | 773.39
318.15 K, x2 = 0.4031 | 779.4
318.15 K, x2 = 0.4661 | 785.42
318.15 K, x2 = 0.5339 | 792.26
318.15 K, x2 = 0.6012 | 799.41
318.15 K, x2 = 0.6679 | 806.93
318.15 K, x2 = 0.7346 | 814.9
318.15 K, x2 = 0.7994 | 823.13
318.15 K, x2 = 0.8645 | 831.93
318.15 K, x2 = 0.9333 | 841.85

c1ccccc1 [benzene] + CC(C)CC(C)(C)C
x1 = 1
Details | mass density [kg/m3]
298.15 K | 873.52
308.15 K | 862.84
318.15 K | 852.18

c1ccccc1 [benzene] + CCC(C)(C)OC
x1 = 1
Details | mass density [kg/m3]
298.15 K | 873.53
308.15 K | 862.85
318.15 K | 852.18
